Test results taken from patent US20230404995A1, “COMPOSITIONS AND METHODS FOR TREATING PULMONARY FIBROSIS” (priority 2020, published 2023).

Experiments:
WI-38 lung fibroblasts [1] = test: TGF-β induced collagen production in WI-38 lung fibroblasts (immunofluorescent imaging); assay type: cell-based; conditions: serum starved WI-38, TGF-β 5 ng/ml, 48 hours, quinacrine 2.5 μM; FIG. 2D
Experimental: It is well established that during fibrotic diseases, fibroblasts and epithelial cells are transformed in myofibroblasts (mesenchymal cells), which secrete excess amount of extracellular matrix (ECM), one of the major components being interstitial collagen at the site of tissue injury. Serum starved WI-38 lung fibroblasts were activated with TGF-β (5 ng/ml; 48 hours), and QA's efficacy's in inhibiting collagen production due to transition of fibroblasts in collagen-secreting fibroblasts was tested.

[2] = system: A549 alveolar epithelial cells; test: TGF-β induced epithelial-mesenchymal transition (EMT) in A549 cells: morphology and E-cadherin expression
HBE cells = test: TGF-β induced epithelial-mesenchymal transition (EMT) in HBE cells, cell imaging; assay type: cell-based, human; conditions: TGF-β 10 ng/mL, QA 0.5, 1, 2.5 and 5 μM tested, 24 and 48 hours, FIG. 4
Experimental: For TGF-β induced epithelial mesenchymal transition (EMT) images, HBE cells (50,000 cells/well) were seeded in a 6-well culture plate. Next day, all treatments (except the medium control) were starved with replacement of growth factor-absent media. After 24 hours incubation, the QA treatments were administered: 0.5, 1, 2.5, and 5 μM. Each treatment also included 10 ng/mL of TGF-β. The remaining 2 wells were treated with regular media and TGF-β as the negative control and positive control, respectively. Individual images of the cells were taken with an EVOS-FL Cell imaging fluorescence microscope (Thermo Fisher Scientific, Waltham, MA, USA) after 24 and 48 hours.
EMT is presented by morphological changes following TGF-beta treatment, and subsequent reversal with QA treatment.

WI-38 lung fibroblasts [3] = test: Growth factor induced hyper-proliferation of WI-38 lung fibroblasts
[4] = system: primary human bronchial epithelial (HBE) cells; test: Cell viability of HBE cells (Cell Titer Blue cell viability kit); assay type: cell-based; conditions: QA 0.039-10 μM, 24 hours, FIG. 3
Experimental: A cell viability study was carried out on HBE cells using Cell Titer Blue cell viability kit. Briefly, cells were treated with varying concentrations of QA (0.039-10 μM), for 24 hours, and media was used as a control. Fluorescence readings were taken at 540/590 nm using a Spark 10M Plate Reader (Tecan, Switzerland).

CCN(CC)CCCC(C)Nc1c2ccc(Cl)cc2nc2ccc(OC)cc12 (stereo not shown) [QA, quinacrine]
collagen expression (WI-38 lung fibroblasts [1]): significantly reduced | E-cadherin expression, western blot (compared to β-actin) ([2]; A549 cells co-incubated with QA 2.5 μM and TGF-β 5 ng/ml, TGF-β alone gave 40% reduction, FIGS. 1C-D): completely restored | E-cadherin expression, immunofluorescence ([2]; A549 cells, TGF-β 5 ng/ml, 48 h, simultaneous QA 2.5 μM, FIG. 1B): restored | cell morphology, protection against TGF-β induced EMT ([2]; serum starved A549 cells, TGF-β 5 ng/ml with simultaneous QA 2.5 μM, FIG. 1A): reversing fibroblastic morphology induced by TGF-β treatment | lowest concentrations that effectively inhibited TGF-beta induced EMT (morphological changes) (HBE cells): 0.5-1 μM | FGF induced hyper-proliferation (WI-38 lung fibroblasts [3]; WI-38, FGF 10 ng/ml, 72 hours, FIG. 2C): dose-dependent reduction | PDGF-BB induced hyper-proliferation (WI-38 lung fibroblasts [3]; WI-38, PDGF-BB 10 ng/ml, 72 hours, FIG. 2B): dose-dependent reduction | fibroblast proliferation in the presence of TGF-β (WI-38 lung fibroblasts [3]; WI-38, TGF-β 10 ng/ml, 48 hours, FIG. 2A): dose-dependent reduction | viability (cytotoxicity of the QA doses used) (WI-38 lung fibroblasts [3]; WI-38 lung fibroblasts, all doses of QA used in the proliferation study): > 90% | cell viability [4]: > 85%
